This note sets out measurements from ChEMBL document CHEMBL1201862, “PubChem BioAssay data set” (2004).

Test in all cases: NCI-60 cell line screen, 48 h
Experiment [1] relates to OVCAR-8.
Experiment [2] concerns HCT-15.
Experiment [3] relates to SNB-75.
In experiment [4] the test system is T47D.
In experiment [5] the test system is COLO 205.
The test system of experiment [6] is UO-31.
In experiment [7] the test system is A549.
Experiment [8] deals with SK-MEL-28.
Experiment [9] has as its system M14.
For experiment [10], the system named is UACC-257.
The test system of experiment [11] is SF-295.
Experiment [12] has as its system SNB-19.
Experiment [13] concerns PC-3.
Experiment [14] deals with HCT-116.
In experiment [15] the test system is 786-0.
The subject of experiment [16] is OVCAR-4.
In experiment [17] the test system is OVCAR-3.
Experiment [18] deals with SK-MEL-2.
The subject of experiment [19] is UACC-62.
Experiment [20] concerns A498.

Molecules are shown by their SMILES.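 Briefly, cells in 96-well plates were exposed to five compound concentrations for 48 h, and endpoints were estimated by linear interpolation. The concentration for 50% growth inhibition is given as GI50.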 Activity calls are given as the source filed them. No stated cut-off is given here; in the data, active = GI50 up to about 1.1 µM and inactive = higher.

For the compound `COc1cc2c(c(O)c1OC)C(=O)C(Cc1ccc(O)cc1)CO2` (stereo not given), the GI50 is 38.2 µM (inactive) in experiment [1]; 11.2 µM in [2]; 18.4 µM (inactive) in experiment [3]; 29 µM (inactive) in [4]; 73.6 µM (inactive) in experiment [5]; 40.6 µM (inactive) in experiment [6]. The GI50 in experiment [7] is 23.8 µM (inactive); in experiment [8], 46.8 µM (inactive); in [9], 23.1 µM (inactive); in [10], 54.2 µM (inactive); in experiment [11], 5.46 µM (inactive); in experiment [12], 20.3 µM (inactive). Also, the GI50 in experiment [13] is 33.2 µM (inactive); in experiment [14], 25.3 µM (inactive); in experiment [15] it was 32.9 µM (inactive); in experiment [16] it was 44.7 µM (inactive); in experiment [17] it was 9.4 µM (inactive); in experiment [18], 30.8 µM (inactive). In experiment [19], the GI50 was 32.4 µM (inactive).
In the case of `c1ccc(CCCCNCc2cc(CNCCCCc3ccccc3)cc(CNCCCCc3ccccc3)c2)cc1`, the GI50 is 0.782 µM (active) in [1]; 0.586 µM in experiment [2]; 1.66 µM (inactive) in experiment [3]; 1.79 µM (inactive) in [4]; 0.366 µM (active) in experiment [5]; 0.261 µM (active) in [6]. Moreover, the GI50 in experiment [7] is 0.263 µM (active); in experiment [8], 0.948 µM (active); in experiment [9] it was 0.556 µM (active); in [10] it was 0.859 µM (active); in experiment [11], 1.81 µM (inactive); in [12], 0.714 µM (active). The GI50 in [13] is 1.41 µM (inactive); in experiment [14], 1.97 µM (inactive); in experiment [15], 1.31 µM (inactive); in experiment [16], 1.85 µM (inactive); in experiment [17] it was 1.47 µM (inactive); in experiment [18], 1.82 µM (inactive). Moreover, the GI50 in experiment [19] is 1.76 µM (inactive).
For the compound `COC[C@@H](/N=C/c1ccc(OC)cc1)C(C)C`, the GI50 in experiment [1] is > 100 µM (inactive); in experiment [2], more than 100 µM; in [3], > 100 µM (inactive); in [4], > 100 µM (inactive); in experiment [5], 80.4 µM (inactive); in [6], > 100 µM (inactive). Further, the GI50 in [7], in [8], in experiment [9], in experiment [10], in experiment [11] and in experiment [13] was > 100 µM (inactive) throughout. Also, the GI50 in [14], in [15], in [16], in experiment [18] and in experiment [19] was > 100 µM (inactive) each time.
Regarding `COc1cc(-c2cc(=O)c3cc4c(cc3[nH]2)OCO4)cc(OC)c1O`, the GI50 was > 10 µM (inactive) in [1]; more than 10 µM in [2]; > 10 µM (inactive) in experiment [3]; > 10 µM (inactive) in experiment [4]; > 10 µM (inactive) in experiment [5]; > 10 µM (inactive) in experiment [6]. For the same compound, the GI50 in [7], in experiment [8], in experiment [9], in experiment [10], in [11] and in [12] was > 10 µM (inactive) throughout. For the same compound, the GI50 in experiment [13], in experiment [14], in experiment [15], in experiment [16], in experiment [17] and in experiment [18] was > 10 µM (inactive) each time. Also, in experiment [19], the GI50 was > 10 µM (inactive).
Regarding `Cc1ccnc2nc(-c3ccc4ccccc4c3)cc(O)c12`, the GI50 was 2.83 µM (inactive) in [1]; 0.43 µM in experiment [2]; 1.03 µM (active) in experiment [3]; 7.82 µM (inactive) in experiment [4]; 0.621 µM (active) in [5]; 3.26 µM (inactive) in experiment [6]. Moreover, the GI50 was 1.49 µM (inactive) in experiment [20]; 1.4 µM (inactive) in experiment [7]; 1.76 µM (inactive) in experiment [8]; 1.22 µM (inactive) in experiment [9]; 6.75 µM (inactive) in experiment [10]; 3.77 µM (inactive) in [12]. For the same compound, the GI50 in [15] is 1.52 µM (inactive); in [16], 1.71 µM (inactive); in [18], 0.865 µM (active); in experiment [19] it was 0.531 µM (active).
As to `[O-][n+]1c2ccccc2[n+]([O-])c2cc(Br)ccc21`, the GI50 in experiment [1] is 14.8 µM (inactive); in [2], 13.3 µM; in [3], 26.3 µM (inactive); in [4], 10.2 µM (inactive); in [5] it was 20.7 µM (inactive); in experiment [6], 9.48 µM (inactive). Further, the GI50 in experiment [20] was 17.9 µM (inactive); in experiment [7], 10.8 µM (inactive); in [8], 54.1 µM (inactive); in experiment [9], 17.2 µM (inactive); in experiment [10], 17.9 µM (inactive); in [11] it was 20.6 µM (inactive). Further, the GI50 in experiment [12] was 33.2 µM (inactive); in [14] it was 70.1 µM (inactive); in experiment [15], 10.1 µM (inactive); in [16] it was 18.9 µM (inactive); in [17], 2.21 µM (inactive); in experiment [18], 29 µM (inactive). For the same compound, the GI50 in experiment [19] is 18.3 µM (inactive).
Regarding `COc1ccc(Nc2nnc(CCCCCCCCc3nnc(Nc4ccc(OC)cc4)o3)o2)cc1`, the GI50 in [1] was > 100 µM (inactive); in experiment [2], more than 100 µM; in [3], > 100 µM (inactive); in experiment [5], > 100 µM (inactive); in [6], > 100 µM (inactive); in [20], > 100 µM (inactive). Also, the GI50 in experiment [7], in experiment [8], in [9], in experiment [10], in [11] and in experiment [12] was > 100 µM (inactive) each time. Also, the GI50 in [13], in experiment [14], in experiment [15], in experiment [16], in experiment [17] and in [18] was > 100 µM (inactive) in each case.
Take `Cc1cnc2sn(-c3ccc(Oc4ccccc4)cc3)c(=O)c2c1`: the GI50 is 28.8 µM (inactive) in experiment [1]; 7.38 µM in experiment [2]; 17.9 µM (inactive) in [3]; 14 µM (inactive) in experiment [4]; 20.5 µM (inactive) in [5]; 19.5 µM (inactive) in [6]. Moreover, the GI50 in [7] was 16.8 µM (inactive); in experiment [8] it was 10.3 µM (inactive); in experiment [9] it was 7.43 µM (inactive); in experiment [10], 11.9 µM (inactive); in experiment [11], 15.5 µM (inactive); in experiment [12], 19.7 µM (inactive). For the same compound, the GI50 was 13.4 µM (inactive) in [13]; 14 µM (inactive) in [14]; 10.7 µM (inactive) in [15]; 17.9 µM (inactive) in experiment [16]; 6.11 µM (inactive) in experiment [17]; 28.3 µM (inactive) in experiment [18]. For the same compound, the GI50 in experiment [19] is 10.3 µM (inactive).
With `COc1ccc(-c2csc(Cc3nc4ccccc4c(=O)n3-c3ccc(Cl)cc3)n2)cc1`, the GI50 in experiment [1] was 57.7 µM (inactive); in experiment [2] it was 29.1 µM; in experiment [3], > 100 µM (inactive); in experiment [5], 34.9 µM (inactive); in experiment [6], 34.6 µM (inactive); in [20], 70.8 µM (inactive). Further, the GI50 in experiment [7] is 22.7 µM (inactive); in [8], 27 µM (inactive); in experiment [9], 21.7 µM (inactive); in experiment [10], 51.1 µM (inactive); in experiment [11], 50.4 µM (inactive); in [12], 24.4 µM (inactive). In addition, the GI50 is 29.4 µM (inactive) in experiment [13]; 19.8 µM (inactive) in experiment [14]; 28.6 µM (inactive) in [15]; 52.6 µM (inactive) in experiment [16]; 40.5 µM (inactive) in [17]; 17.8 µM (inactive) in [18]. Further, the GI50 in experiment [19] is 18.5 µM (inactive).
For `Cc1ccc(S(=O)(=O)NC(=O)NC(Cc2c[nH]c3ccccc23)C(=O)O)cc1` (stereo not given), the GI50 is > 100 µM (inactive) in experiment [1]; more than 100 µM in experiment [2]; > 100 µM (inactive) in [3]; > 100 µM (inactive) in experiment [4]; > 100 µM (inactive) in experiment [5]; > 100 µM (inactive) in experiment [6]. Also, the GI50 in [7], in experiment [8], in [9], in [10], in [11] and in experiment [12] was > 100 µM (inactive) throughout. Moreover, the GI50 in [13], in experiment [14], in [15], in experiment [16] and in experiment [18] was > 100 µM (inactive) each time.
On to `CC(C)CCC[C@@H](C)[C@H]1CCC2C3CC=C4C[C@@H](Oc5c6ccccc6nc6ccccc56)CCC4C3CCC21` (stereo not given in full), for which the GI50 in [1] was > 50 µM (inactive); in experiment [2], more than 50 µM; in experiment [4], > 50 µM (inactive); in experiment [5], > 50 µM (inactive); in experiment [6], 25.6 µM (inactive); in [7], > 50 µM (inactive). Moreover, the GI50 in experiment [8], in experiment [9], in experiment [10], in [11], in experiment [12] and in [13] was > 50 µM (inactive) in each case. Besides, the GI50 in [14], in [15], in experiment [16], in [17], in experiment [18] and in experiment [19] was > 50 µM (inactive) throughout.
